Entries after “also recorded” stand apart in the source; their conditions may differ. Read-outs that look alike come from different tables or passages of the source. *: point of attachment. Cbz = O=C(OCc1ccccc1)*; CH2F = FC*
Legend:
RPE [1] = test: Alu RNA-induced RPE degeneration in wild-type mice, inhibitors given intravitreously; assay type: in vivo; settings: WT mice, subretinal Alu RNA, inhibitor intravitreous
Protocol: (§1) Subretinal injection and imaging. Subretinal injections (1 μL) were performed using a Pico-Injector (PLI-100, Harvard Apparatus). Plasmids were transfected in vivo using 10% Neuroporter (Genlantis). Fundus imaging was performed on a TRC-50 IX camera (Topcon) linked to a digital imaging system (Sony). RPE flat mounts were immunolabeled using antibodies against zonula occludens-1 (Invitrogen).
(§2) Retinal photographs of dilated mouse eyes were taken with a TRC-50 IX camera (Topcon) linked to a digital imaging system (Sony).
(§3) Human eyes fixed in 2-4% paraformaldehyde were prepared as eyecups, cryoprotected in 30% sucrose, embedded in optimal cutting temperature compound (Tissue-Tek OCT; Sakura Finetek), and cryosectioned into 10 μm sections. Depigmentation was achieved using 0.25% potassium permanganate and 0.1% oxalic acid. Immunohistochemical staining was performed with the rabbit antibody against NLRP3 (1:100, Sigma Aldrich) or rabbit antibody against Caspase-1 (prediluted, AbCam). Isotype IgG was substituted for the primary antibody to assess the specificity of the staining. Bound antibody was detected with biotin-conjugated secondary antibodies, followed by incubation with ABC reagent and visualized by Vector Blue (Vector Laboratories). Levamisole (Vector Laboratories) was used to block endogenous alkaline phosphatase activity. Slides were washed in PBS, counterstained with neutral red (Fisher Scientific), rinsed with deionized water, air dried, and then mounted in Vectamount (Vector Laboratories). Fluorescent labeling of human tissue was performed with the rabbit antibody against PYCARD (1:50, Clone N-15, Santa Cruz Biotechnology) Immunolabeling was visualized by fluorescently conjugated anti-rabbit secondary antibody (Invitrogen). Tissue autofluorescence was quenched by incubating the sections in 0.3% Sudan black (Fisher Scientific). Sections were mounted in Vectashield with DAPI (Vector Laboratories). Mouse RPE/choroid flat mounts were fixed with 4% paraformaldehyde or 100% methanol, stained with rabbit antibodies against human zonula occludens-1 (1:100, Invitrogen) and visualized with Alexa594 (Invitrogen). All images were obtained using the Leica SP-5 or Zeiss Axio Observer Z1 microscopes.
(§4) Subretinal injections (1 μL) in mice were performed using a Pico-Injector (PLI-100, Harvard Apparatus). In vivo transfection of plasmids coding for two different Alu sequences (pAlu) or empty control vector (pNull) (Bennett et al., 2008; Kaneko et al., 2011; Shaikh et al., 1997) was achieved using 10% Neuroporter (Genlantis). AAV1-BEST1-Cre (Alexander and Hauswirth, 2008) or AAV1-BEST1-GFP were injected at 1.0×10^11 pfu/mL and in vitro transcribed Alu RNA was injected at 0.3 mg/mL.
(§5) siRNAs formulated in siRNA buffer (20 mM KCL, 0.2 mM MgCl2 in HEPES buffer at pH 7.5; Dharmacon) or phosphate buffered saline (PBS; Sigma-Aldrich); the TLR4 antagonist Ultra Pure Rhodobacter sphaeroides LPS (LPS-RS, InvivoGen), a peptide inhibitor of MyD88 homodimerization IMG-2005 (IMGENEX), control inhibitor (IMGENEX), recombinant IL-18 (Medical & Biological Laboratories), neutralizing rat antibodies against mouse IL-1β (IMGENEX), neutralizing rat antibodies against mouse IL-18 (Medical & Biological Laboratories), isotype control IgGs (R&D Systems or eBioscience as appropriate), Caspase-1 inhibitor Z-WEHD-FMK (R&D Systems), Caspase control inhibitor Z-FA-FMK (R&D Systems), DPI (Enzo Life Sciences), Mito-TEMPO (Enzo Life Sciences), MitoQ and dTPP (both adsorbed to cyclodextrin and provided by M.P. Murphy, MRC Mitochondrial Biology Unit), and gp91ds-tat and scrambled gp91 ds-tat (both Anaspec), were dissolved in phosphate buffered saline (PBS; Sigma-Aldrich) or dimethyl sulfoxide (DMSO; Sigma-Aldrich), and injected into the vitreous humor in a total volume of 1 μL with a 33-gauge Exmire microsyringe (Ito Corporation). […] As a control, Luc siRNA-chol (17+2 nt) was used with identical dosages.

human RPE cells [2] = settings: glycine 5 mM, LPS 5 μg/ml 6 h, ATP 25 μM
Protocol: (§6) MTS assays were performed using the CellTiter 96 AQueous One Solution Cell Proliferation Assay (Promega) according to the manufacturer's instructions. For examining the cytoprotective effect of glycine in Alu RNA induced cell death, human RPE cells were transfected with pNull/pAlu. At 6 h post-transfection the cells were incubated with complete media containing glycine (5 mM) or vehicle, and cell viability was assessed after 24 h. Similarly, human RPE cells primed with LPS (5 μg/ml for 6 h) were treated with ATP (25 μM) in the presence of glycine containing media (5 mM). 30 min post ATP cell viability was assessed as described above.

RPE [3] = test: pAlu-induced RPE degeneration in wild-type mice, inhibitors given intravitreously; assay type: in vivo; settings: WT mice, subretinal pAlu, inhibitor intravitreous, fundus photographs and ZO-1 flat mounts
Protocol: as §1, §2, §3, §4
as §5, with “dosages. […]” for “dosages.”

NLRP3 and IL18 mRNAs = test: NLRP3 and IL18 mRNA in human RPE cells (real-time RT-PCR); assay type: cell-based
Excerpt: Transcript abundance was quantified by real-time RT-PCR using an Applied Biosystems 7900 HT Fast Real-Time PCR system by the 2^−ΔΔCt method.
Total RNA was extracted from tissues or cells using Trizol reagent (Invitrogen) according to manufacturer's recommendations, DNase treated and reverse transcribed (QuantiTect, Qiagen). The RT products (cDNA) were amplified by real-time quantitative PCR (Applied Biosystems 7900 HT Fast Real-Time PCR system) with Power SYBR green Master Mix. Oligonucleotide primers specific for human IL1B (forward 5′-[…]-3′ and reverse 5′-[…]-3′), human IL18 (forward 5′-[…]-3′ and reverse 5′-[…]-3′), human NLRP3 (forward 5′-[…]-3′ and reverse 5′-[…]-3′), human PYCARD (forward 5′-[…]-3′ and reverse 5′-[…]-3′), human VDAC1 (forward 5′-[…]-3′ and reverse 5′-[…]-3′), human VDAC2 (forward 5′-[…]-3′ and reverse 5′-[…]-3′), human VDAC3 (forward 5′-[…]-3′ and reverse 5′-[…]-3′), human 18S rRNA (forward 5′-[…]-3′ and reverse 5′-[…]-3′), mouse Myd88 (forward 5′-[…]-3′ and reverse 5′-[…]-3′), mouse Nlrp3 (forward 5′-[…]-3′ and reverse 5′-[…]-3′), mouse Il18 (forward 5′-[…]-3′ and reverse 5′-[…]-3′), and mouse 18S rRNA (forward 5′-[…]-3′ and reverse 5′-[…]-3′) were used. The QPCR cycling conditions were 50° C. for 2 min, 95° C. for 10 min followed by 40 cycles of a two-step amplification program (95° C. for 15 s and 58° C. for 1 min). At the end of the amplification, melting curve analysis was applied using the dissociation protocol from the Sequence Detection system to exclude contamination with unspecific PCR products. […] For negative controls, no RT products were used as templates in the QPCR and verified by the absence of gel-detected bands. Relative expressions of target genes were determined by the 2^−ΔΔCt method.

human RPE cells [4] = settings: peptide 100 μM
Protocol: All cell cultures were maintained at 37° C. and 5% CO2. Primary mouse RPE cells were isolated as previously described (Yang et al., 2009) and grown in Dulbecco Modified Eagle Medium (DMEM) supplemented with 20% FBS and standard antibiotics concentrations. Primary human RPE cells were isolated as previously described (Yang et al., 2008) and maintained in DMEM supplemented with 10% FBS and antibiotics. HeLa cells were maintained in DMEM supplemented with 20% FBS and standard antibiotics concentrations. THP-1 cells were cultured in RPMI 1640 medium supplemented with 10% FBS and antibiotics.
as §6
MTS assays were performed using the CellTiter 96 AQueous One Solution Cell Proliferation Assay (Promega) according to the manufacturer's instructions.

Molecule	Alu RNA-induced RPE degeneration (RPE [1])	pAlu-induced RPE degeneration (RPE [3])	other results
CC1(C)CC(NC(=O)C[P+](c2ccccc2)(c2ccccc2)c2ccccc2)CC(C)(C)N1[O] [Mito-TEMPO]	blocked	–	Alu RNA-induced RPE degeneration (RPE [1]; listed as MitoTempo): prevent
NCC(=O)O [glycine]	–	–	human RPE cell death induced by LPS+ATP (human RPE cells [2]): inhibited; human RPE cell death induced by LPS+ATP (human RPE cells [2]; listed as Glycine): inhibits
c1ccc([I+]c2ccccc2)cc1 [DPI, diphenyliodonium]	blocked	protects	pAlu-induced NLRP3 and IL18 mRNA upregulation (NLRP3 and IL18 mRNAs): blocks; also recorded: blocked pAlu-induced NLRP3 and IL18 mRNA upregulation
DRQIKIWFQNRRMKWKK [control peptide]	did not do so	–	–
COC1=C(OC)C(=O)C(CCCCCCCCCC[P+](c2ccccc2)(c2ccccc2)c2ccccc2)=C(C)C1=O [MitoQ]	prevent; also recorded: blocked	–	–
Cbz-IETD-CH2F	–	blocked RPE degeneration	pAlu-induced RPE degeneration (RPE [3]; listed as Caspase-8 inhibitor): protects; pAlu-induced cytotoxicity in human RPE cells (human RPE cells [4]): inhibited human RPE cell death; also recorded: protects

— patent US9453226B2, “Protection of cells from Alu-RNA-induced degeneration and inhibitors for protecting cells” (UNIVERSITY OF KENTUCKY RESEARCH FOUNDATION, priority 2011, dated 2016)
